Measurements reported in the supplement of paper PMC6045584.
± gives the standard deviation of the averaged measurements.

Compound: COc1cccc2c1C(=O)c1c(O)c3c(c(O)c1C2=O)C[C@@](O)(C(=O)CO)C[C@@H]3O[C@H]1C[C@H](N)[C@H](O)[C@H](C)O1 [DOXORUBICIN]
Assay: surviving fraction relative to DMSO-only wells; higher = less growth inhibition
Settings: exposure time: 5 days
How it was run: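 Surviving fraction was calculated by normalising CellTiter-Glo luminescence to the median of DMSO-only wells. Tumour cell lines in log phase were seeded in 384-well plates at 250–500 cells per well, and 24 hours later were exposed continuously for five days to inhibitors at 0.5, 1, 5, 10, 50, 100, 500 and 1000 nM.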

Test System	surviving fraction (0.5 nM)	surviving fraction (1 nM)	surviving fraction (5 nM)	surviving fraction (10 nM)	surviving fraction (50 nM)	surviving fraction (100 nM)	surviving fraction (500 nM)	surviving fraction (1000 nM)
MDAMB157 BREAST	0.918 ± 0.025	0.869 ± 0.053	0.498 ± 0.058	0.213 ± 0.02	0.375 ± 0.042	0.214 ± 0.014	0.053 ± 0.0027	0.0307 ± 0.0046
MDAMB231 BREAST	0.979 ± 0.029	0.992 ± 0.037	0.946 ± 0.024	0.817 ± 0.026	0.53 ± 0.014	0.474 ± 0.011	0.125 ± 0.0043	0.0638 ± 0.0041
MDAMB361 BREAST	0.794 ± 0.089	0.997 ± 0.12	0.906 ± 0.013	0.856 ± 0.074	0.746 ± 0.038	0.831 ± 0.1	0.387 ± 0.034	0.0543 ± 0.013
MDAMB436 BREAST	0.895 ± 0.077	0.905 ± 0.069	0.822 ± 0.12	0.783 ± 0.026	0.484 ± 0.036	0.423 ± 0.049	0.297 ± 0.016	0.269 ± 0.031
MDAMB453 BREAST	1.05 ± 0.045	1.04 ± 0.065	1.07 ± 0.017	1.08 ± 0.044	0.723 ± 0.065	0.395 ± 0.066	0.0503 ± 0.0055	0.0433 ± 0.0023
MDAMB468 BREAST	0.897 ± 0.065	0.931 ± 0.075	0.992 ± 0.039	0.969 ± 0.013	0.49 ± 0.18	0.342 ± 0.006	0.11 ± 0.035	0.038 ± 0.0072
MFM223 BREAST	1.11 ± 0.045	1.05 ± 0.032	0.975 ± 0.069	0.702 ± 0.12	0.669 ± 0.082	0.221 ± 0.013	0.079 ± 0.0053	0.052 ± 0.007
MG63 BONE	1.02 ± 0.041	1.04 ± 0.053	1.04 ± 0.022	1.03 ± 0.028	0.21 ± 0.014	0.16 ± 0.025	0.0327 ± 0.0025	0.031 ± 0.0017
MHM BONE	0.992 ± 0.027	1.03 ± 0.016	1.008 ± 0.009	1.005 ± 0.0081	0.841 ± 0.029	0.792 ± 0.02	0.296 ± 0.031	0.16 ± 0.019
NCIH441 LUNG	1.04 ± 0.054	1.06 ± 0.051	0.937 ± 0.032	0.799 ± 0.029	0.558 ± 0.013	0.461 ± 0.024	0.246 ± 0.019	0.096 ± 0.0069
NOS1 BONE	1.16 ± 0.077	0.972 ± 0.051	0.982 ± 0.1	0.643 ± 0.074	0.752 ± 0.11	0.455 ± 0.036	0.106 ± 0.013	0.0487 ± 0.0068
NY BONE	0.959 ± 0.019	0.966 ± 0.013	0.981 ± 0.015	0.876 ± 0.058	0.294 ± 0.015	0.201 ± 0.0044	0.0617 ± 0.004	0.0443 ± 0.0057
OS25HAL BONE	0.982 ± 0.016	0.974 ± 0.013	0.97033 ± 0.00058	0.965 ± 0.0076	0.258 ± 0.033	0.151 ± 0.01	0.0337 ± 0.0047	0.038 ± 0.003
OSHN BONE	1.04 ± 0.039	1.05 ± 0.059	1.05 ± 0.031	1.03 ± 0.028	0.299 ± 0.068	0.286 ± 0.062	0.0707 ± 0.0021	0.0503 ± 0.00058
PCI30 HEADNECK	0.979 ± 0.094	0.929 ± 0.01	0.92 ± 0.13	0.637 ± 0.061	0.551 ± 0.022	0.587 ± 0.024	0.079 ± 0.023	0.03 ± 0.0027
RDES SOFT TISSUE	1.15 ± 0.035	1.15 ± 0.061	1.04 ± 0.05	1.25 ± 0.14	0.16 ± 0.021	0.0457 ± 0.004	0.087 ± 0.0098	0.0413 ± 0.0031
S68 BREAST	0.792 ± 0.077	0.87 ± 0.13	0.693 ± 0.16	0.424 ± 0.016	0.205 ± 0.013	0.19 ± 0.015	0.037 ± 0.0046	0.0317 ± 0.0011
SAOS2 BONE	1.13 ± 0.038	1.1 ± 0.054	1.09 ± 0.043	0.914 ± 0.055	0.277 ± 0.0081	0.111 ± 0.0087	0.036	0.0367 ± 0.0029
SCC003 HEADNECK	0.959 ± 0.12	1.04 ± 0.12	1.02 ± 0.1	0.855 ± 0.098	0.396 ± 0.046	0.431 ± 0.065	0.11 ± 0.025	0.0417 ± 0.0086
SCC36 HEADNECK	0.694 ± 0.073	1.13 ± 0.046	0.903 ± 0.001	0.795 ± 0.087	0.426 ± 0.024	0.5 ± 0.069	0.035 ± 0.0027	0.034 ± 0.002

Test System	surviving fraction (0.5 nM)	surviving fraction (1 nM)	surviving fraction (5 nM)	surviving fraction (10 nM)	surviving fraction (50 nM)	surviving fraction (100 nM)	surviving fraction (500 nM)	surviving fraction (1000 nM)
SCC47 HEADNECK	1.021 ± 0.0081	1.03 ± 0.11	1.09 ± 0.09	0.966 ± 0.051	0.573 ± 0.027	0.597 ± 0.039	0.09 ± 0.0027	0.0307 ± 0.0015
SCC90 HEADNECK	0.967 ± 0.034	0.956 ± 0.046	0.954 ± 0.029	1.06 ± 0.1	0.711 ± 0.12	0.571 ± 0.072	0.11 ± 0.033	0.0687 ± 0.0095
SG27 HEADNECK	0.988 ± 0.057	0.967 ± 0.037	1.09 ± 0.094	1.04 ± 0.059	0.949 ± 0.038	0.867 ± 0.081	0.097 ± 0.014	0.0447 ± 0.019
SG28 HEADNECK	1.11 ± 0.12	1.11 ± 0.083	0.976 ± 0.081	1.03 ± 0.011	0.851 ± 0.13	0.609 ± 0.014	0.0457 ± 0.0098	0.038 ± 0.0036
SG31 HEADNECK	1.1 ± 0.095	1.03 ± 0.035	0.818 ± 0.035	0.717 ± 0.11	0.556 ± 0.03	0.495 ± 0.037	0.0787 ± 0.02	0.0363 ± 0.01
SG32 HEADNECK	1.19 ± 0.12	1.07 ± 0.27	0.828 ± 0.14	0.563 ± 0.099	0.414 ± 0.04	0.194 ± 0.019	0.04 ± 0.017	0.0313 ± 0.0081
SG43 HEADNECK	0.854 ± 0.15	0.776 ± 0.14	0.802 ± 0.076	0.675 ± 0.16	0.453 ± 0.056	0.322 ± 0.067	0.0633 ± 0.027	0.048 ± 0.024
SIHA CERVIX	0.996 ± 0.084	0.998 ± 0.08	1.04 ± 0.053	0.9867 ± 0.0011	0.505 ± 0.04	0.481 ± 0.0086	0.0967 ± 0.061	0.0287 ± 0.00058
SJSA1 BONE	1.02 ± 0.015	0.991 ± 0.027	0.927 ± 0.012	0.636 ± 0.052	0.564 ± 0.014	0.284 ± 0.013	0.0957 ± 0.005	0.0317 ± 0.0021
SKBR3 BREAST	0.804 ± 0.17	0.871 ± 0.1	0.852 ± 0.049	0.724 ± 0.16	0.375 ± 0.026	0.256 ± 0.0044	0.0547 ± 0.0061	0.0297 ± 0.0032
SNU475 LIVER	0.958 ± 0.051	0.9777 ± 0.0038	0.982 ± 0.018	0.958 ± 0.059	0.484 ± 0.034	0.392 ± 0.015	0.3 ± 0.032	0.192 ± 0.012
SUM44 BREAST	0.938 ± 0.054	0.887 ± 0.041	0.987 ± 0.044	0.895 ± 0.022	0.859 ± 0.06	0.811 ± 0.051	0.14 ± 0.021	0.054 ± 0.0027
SUM149 BREAST	1.01 ± 0.013	0.961 ± 0.13	0.401 ± 0.056	0.233 ± 0.025	0.186 ± 0.014	0.145 ± 0.0087	0.0277 ± 0.0031	0.0253 ± 0.00058
SUM149.B1*.S BREAST	1.03 ± 0.031	1.065 ± 0.0083	1.01 ± 0.043	0.931 ± 0.041	0.285 ± 0.0081	0.179 ± 0.014	0.068 ± 0.0038	0.0518 ± 0.0023
SUM159 BREAST	1.1 ± 0.14	1.08 ± 0.11	1.05 ± 0.11	0.964 ± 0.043	0.176 ± 0.045	0.173 ± 0.027	0.0397 ± 0.0021	0.039 ± 0.002
SYO1 SYNOVIAL	0.944 ± 0.065	0.906 ± 0.017	0.39 ± 0.066	0.176 ± 0.05	0.0563 ± 0.015	0.0384 ± 0.0093	0.0205 ± 0.00087	0.0309 ± 0.0013
T47D BREAST	1.03 ± 0.03	1 ± 0.038	0.892 ± 0.018	0.673 ± 0.064	0.708 ± 0.021	0.518 ± 0.023	0.197 ± 0.033	0.0751 ± 0.0032
U2OS BONE	1.04 ± 0.053	1.01 ± 0.015	0.86 ± 0.018	0.72 ± 0.05	0.606 ± 0.037	0.376 ± 0.013	0.04 ± 0.0017	0.0373 ± 0.0021
VCAP PROSTATE	1.18 ± 0.094	0.982 ± 0.1	1.1 ± 0.073	0.51 ± 0.028	1.02 ± 0.052	0.291 ± 0.0036	0.0377 ± 0.0064	0.0397 ± 0.015
